For assay [1], the system named is genotype A, "Long" strain RSV. Briefly: RSV-A assay (CPE protection in Hep-2 cells, ATPlite readout). Particulars: genotype A “Long” strain RSV, MOI 0.1, CPE protection, read-out: Human RSV-A (“Long”). In kind it is cell-based, Human respiratory syncytial virus (HRSV). A digest of the protocol: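 Hep-2 cells (8,000/well) were treated with 2-fold serial compound dilutions in duplicate and infected with RSV at MOI 0.1. After 5 days, protection from cytopathic effect was measured as cell viability by ATPlite luminescence, and EC50 values were derived.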
(In general: Cellular ATP, detected with luciferase, serves as a proxy for viable cell number.)

Assay [2] relates to recombinant HMPV CAN97-83 containing eGFP (MPV-GFP1). Briefly: HMPV antiviral assay Method-A (MPV-GFP1 eGFP fluorescence in Vero E6 cells). Type of assay: cell-based, Human metapneumovirus (HMPV). Particulars: read-out: HMPV EC50. Here is the method: HMPV antiviral activity was evaluated using a recombinant version of HMPV CAN97-83 engineered to contain the coding sequence for enhanced green fluorescence protein (eGFP) in the 3′ end of the virus genome (MPV-GFP1, ViraTree). Vero E6 cells ([…]) were seeded at a density of 12,000 cells/100 μL/well into 96-well cell plates one day prior to the assay. On the day of screening, the cell culture medium was aspirated from the wells and cells were washed twice with serum-free Eagle's Modified Essential Medium (EMEM, ATCC #) containing 1% penicillin-streptomycin (Invitrogen) (SF-EMEM). Cell washes were performed by dispensing 100 μL SF-EMEM per well and immediately aspirating the wash medium from the well. Following the second wash step, serum-free OptiMEM (Invitrogen, Cat No.) (SF-OptiMEM) containing 0.5 μg/mL TPCK-Trypsin (VENDOR) and 1% penicillin-streptomycin was added to the cells at 50 μL/well. Compounds were added into the 96-well plates using a JANUS automated liquid handling system (VENDOR). Compounds were initially diluted 1:50 into an intermediate 96-well plate containing SF-OptiMEM prior to transfer to the assay plate (25 μL/well). Each of the test compounds were tested in duplicate wells at final concentrations starting from 8 μM or 2 μM using ½ stepwise dilutions for a total of 8 points. Virus infection was performed by preparing a working stock of MPV-GFP1 at a multiplicity of infection (MOI) equal to 0.05/25 μL and aliquoting 25 μL of virus inoculum to the compound and positive control wells. SF-OptiMEM was added (25 μL/well) to the appropriate wells to serve as a virus-free negative control for the assay. The final DMSO concentration of all wells is 0.5%. Plates were incubated at 32° C., 5% CO2 for 5 days.
After 5 days incubation, eGFP fluorescence intensity was measured at (X) […] wavelength using a Spectramax i3× plate reader (VENDOR). Percent viral inhibition was calculated using the following equation: y=[…]
Where XQ is the fluorescence intensity measured in a well containing recombinant MPV-GFP1-infected, compound-treated cells and XP is the average fluorescence intensity measured in the wells containing untreated cells infected with recombinant virus. EC50 values were then calculated by non-linear regression using a four parameter curve logistic equation. The curve fit model employed was XLFit Dose Response One Site Model 200: y=(A+(B/(1+((x/C)^D))))
Where A is the minimum y value, B is the maximum y value, C is the log EC50 value, and D is the slope factor. […] EC50 ranges are as follows: A<0.5 μM; B>0.5 μM.

Where [3] appears, read: human respiratory syncytial virus.
[4] abbreviates: human metapneumovirus, Vero C1008, 120 h.

The record followed here is patent US12612412B2, “Antiviral heterocyclic compounds” (Enanta Pharmaceuticals, Inc., priority 2021, dated 2026).

The structures appear in SMILES notation. Read-outs that look alike come from different tables or passages of the source.

In the case of `COc1cc(C(=O)NC[C@](O)(c2cc3c(c(-c4ccc(F)cc4)n2)OC[C@]3(C)C(N)=O)C(F)(F)F)cc2nc(C3CC3)[nH]c12` [Example 95], the EC50 in assay [1] (setting [3]) is less than 200 nM; in assay [2] (setting [4]) it was greater than 500 nM.

Regarding `C[C@]1(C(N)=O)COc2c1cc([C@@](O)(CNC(=O)c1cc(OC3CC3)c3nc(C4CC4)sc3c1)C(F)(F)F)nc2-c1ccc(F)cc1` [Example 96], the EC50 in assay [1] (setting [3]) is less than 200 nM; in assay [2] (setting [4]) it was less than 500 nM.

Consider `Cc1nc2c(OC(F)(F)F)cc(C(=O)NC[C@](O)(c3cc4c(c(-c5ccc(F)cc5)n3)OC[C@]4(C)C(N)=O)C(F)(F)F)cc2s1` [Example 97], for which the EC50 in assay [1] (setting [3]) is less than 200 nM; in assay [2] (setting [4]), greater than 500 nM.

In the case of `Cc1n[nH]c2ccc(C(=O)NC[C@](O)(c3cc4c(c(-c5ccc(F)cc5)n3)OC[C@]4(C)C(N)=O)C(F)(F)F)cc12` [Example 100], the results for the EC50 in assay [1] (setting [3]) and in assay [2] (setting [4]) were less than 200 nM and greater than 500 nM, respectively.

As to `CCc1cc(C(=O)NC[C@](O)(c2cc3c(c(-c4ccc(F)cc4)n2)OC[C@]3(C)C(N)=O)C(F)(F)F)cc2cn[nH]c12` [Example 102], the EC50 was less than 200 nM in assay [1] (setting [3]) and less than 500 nM in assay [2] (setting [4]).

`C[C@]1(C(N)=O)COc2c1cc([C@@](O)(CNC(=O)c1cc(Cl)c3[nH]ncc3c1)C(F)(F)F)nc2-c1ccc(F)cc1` [Example 103]: the EC50 was less than 200 nM in assay [1] (setting [3]) and less than 500 nM in assay [2] (setting [4]).

Consider `C[C@]1(C(N)=O)COc2c1cc([C@@](O)(CNC(=O)c1cc(C(F)(F)F)c3[nH]ncc3c1)C(F)(F)F)nc2-c1ccc(F)cc1` [Example 105], for which the results for the EC50 in assay [1] (setting [3]) and in assay [2] (setting [4]) were less than 200 nM and greater than 500 nM, respectively.

Regarding `COc1cc(C(=O)NC[C@](O)(c2cc3c(c(-c4ccc(F)cc4)n2)OC[C@]3(C)C(N)=O)C(F)(F)F)cc2cn[nH]c12` [Example 108], the EC50 in assay [1] (setting [3]) was less than 200 nM; in assay [2] (setting [4]) it was greater than 500 nM.

As to `COc1ccc(C(=O)NC[C@](O)(c2cc3c(c(-c4ccc(F)cc4)n2)OC[C@]3(C)C(N)=O)C(F)(F)F)cc1Nc1nccnn1` [Example 112], the values for the EC50 in assay [1] (setting [3]) and in assay [2] (setting [4]) were less than 200 nM and greater than 500 nM, respectively.

Consider `Cc1cnc2c(Nc3ccc(C)nn3)cc(C(=O)NC[C@](O)(c3cc4c(c(-c5ccc(F)cc5)n3)OC[C@]4(C)C(N)=O)C(F)(F)F)cc2c1` [Example 113], for which the figures for the EC50 in assay [1] (setting [3]) and in assay [2] (setting [4]) were less than 200 nM and less than 500 nM, respectively.

As to `Cc1cnc2c(Nc3ccc(C4CC4)nn3)cc(C(=O)NC[C@](O)(c3cc4c(c(-c5ccc(F)cc5)n3)OC[C@]4(C)C(N)=O)C(F)(F)F)cc2c1` [Example 114], the EC50 is less than 200 nM in assay [1] (setting [3]) and less than 500 nM in assay [2] (setting [4]).

For the molecule `Cc1cnc2c(Nc3ccc(O)nn3)cc(C(=O)NC[C@](O)(c3cc4c(c(-c5ccc(F)cc5)n3)OC[C@]4(C)C(N)=O)C(F)(F)F)cc2c1` [Example 120], the EC50 in assay [1] (setting [3]) was less than 200 nM; in assay [2] (setting [4]), greater than 500 nM.

Take `COc1ccc(Nc2cc(C(=O)NC[C@](O)(c3cc4c(c(-c5ccc(F)cc5)n3)OC[C@]4(C)C(N)=O)C(F)(F)F)cc3cc(C)cnc23)nn1` [Example 121]: the EC50 in assay [1] (setting [3]) is less than 200 nM; in assay [2] (setting [4]) it was less than 500 nM.

On to `[2H]C([2H])([2H])c1cc(C(=O)NC[C@](O)(c2cc3c(c(-c4ccc(F)cc4)n2)OC[C@]3(C)C(N)=O)C(F)(F)F)cc2cn[nH]c12` [Example 128], for which the EC50 in assay [1] (setting [3]) was less than 200 nM; in assay [2] (setting [4]), less than 500 nM.

For `C[C@]1(C(N)=O)COc2c1cc([C@@](O)(CNC(=O)c1ccc3[nH]c(=O)sc3c1)C(F)(F)F)nc2-c1ccc(F)cc1` [Example 129], the EC50 in assay [1] (setting [3]) was less than 200 nM; in assay [2] (setting [4]), greater than 500 nM.

For `COc1cc(C(=O)NC[C@](O)(c2cc3c(c(-c4ccc(F)cc4)n2)OC[C@]3(C)C(N)=O)C(F)(F)F)ccc1OC[C@H](O)C(F)(F)F` [Example 132], the EC50 in assay [1] (setting [3]) was less than 200 nM; in assay [2] (setting [4]), greater than 500 nM.

In the case of `COc1cc(C(=O)NC[C@](O)(c2cc3c(c(-c4ccc(F)cc4)n2)OC[C@]3(C)C(N)=O)C(F)(F)F)ccc1OCC1(O)CC1` [Example 134], the EC50 in assay [1] (setting [3]) was less than 200 nM; in assay [2] (setting [4]) it was greater than 500 nM.

`C[C@]1(C(N)=O)COc2c1cc([C@@](O)(CNC(=O)c1ccc(OC[C@H](O)C(F)(F)F)c(OC3CC3)c1)C(F)(F)F)nc2-c1ccc(F)cc1` [Example 135]: the EC50 in assay [1] (setting [3]) is less than 200 nM; in assay [2] (setting [4]), greater than 500 nM.

Regarding `COc1cc(C(=O)NC[C@](O)(c2cc3c(c(-c4ccc(F)cc4)n2)OC[C@]3(C)C(N)=O)C(F)(F)F)ccc1OC[C@H](O)C(F)F` [Example 136], the EC50 is less than 200 nM in assay [1] (setting [3]) and greater than 500 nM in assay [2] (setting [4]).

With `COc1cc(C(=O)NC[C@](O)(c2cc3c(c(-c4ccc(F)cc4)n2)OC[C@]3(C)C(N)=O)C(F)(F)F)ccc1OC[C@@H](C)O` [Example 138], the figures for the EC50 in assay [1] (setting [3]) and in assay [2] (setting [4]) were less than 200 nM and greater than 500 nM, respectively.

Take `CCNc1nc2ccc(C(=O)NC[C@](O)(c3cc4c(c(-c5ccc(F)cc5)n3)OC[C@]4(C)C(N)=O)C(F)(F)F)cc2s1` [Example 139]: the EC50 in assay [1] (setting [3]) was less than 200 nM; in assay [2] (setting [4]) it was greater than 500 nM.

For the molecule `C[C@]1(C(N)=O)COc2c1cc([C@@](O)(CNC(=O)c1ccc3nc(C(F)F)sc3c1)C(F)(F)F)nc2-c1ccc(F)cc1` [Example 141], the EC50 in assay [1] (setting [3]) was less than 200 nM; in assay [2] (setting [4]), greater than 500 nM.

In the case of `C[C@]1(C(N)=O)COc2c1cc([C@@](O)(CNC(=O)c1ccc3nc(CF)sc3c1)C(F)(F)F)nc2-c1ccc(F)cc1` [Example 142], the figures for the EC50 in assay [1] (setting [3]) and in assay [2] (setting [4]) were less than 200 nM and greater than 500 nM, respectively.

Consider `[2H]C([2H])([2H])c1cc2cc(C(=O)NC[C@](O)(c3cc4c(c(-c5ccc(F)cc5)n3)OC[C@]4(C)C(N)=O)C(F)(F)F)cc(OC)c2nc1C` [Example 143], for which the results for the EC50 in assay [1] (setting [3]) and in assay [2] (setting [4]) were less than 200 nM and less than 500 nM, respectively.

Take `COc1cc(C(=O)NC[C@](O)(c2cc3c(c(-c4ccc(F)cc4)n2)OC[C@]3(C)C(N)=O)C(F)(F)F)cc2cc(CF)c(C)nc12` [Example 147]: the EC50 was less than 200 nM in assay [1] (setting [3]) and less than 500 nM in assay [2] (setting [4]).

Turning to `COc1cc(C(=O)NC[C@](O)(c2cc3c(c(-c4ccc(F)cc4)n2)OC[C@]3(C)C(N)=O)C(F)(F)F)cc2cc(C(F)F)c(C)nc12` [Example 148], the EC50 was less than 200 nM in assay [1] (setting [3]) and less than 500 nM in assay [2] (setting [4]).

Turning to `COc1cc(C(=O)NC[C@](O)(c2cc3c(c(-c4ccc(F)cc4)n2)OC[C@]3(C)C(N)=O)C(F)(F)F)ccc1OC[C@@H](C)OP(=O)(O)O` [Example 149], the figures for the EC50 in assay [1] (setting [3]) and in assay [2] (setting [4]) were less than 200 nM and greater than 500 nM, respectively.

`C[C@]1(C(N)=O)COc2c1cc([C@@](O)(CNC(=O)c1ccc3nc(NC(=O)CN)sc3c1)C(F)(F)F)nc2-c1ccc(F)cc1` [Example 152]: the EC50 in assay [1] (setting [3]) is less than 200 nM; in assay [2] (setting [4]), greater than 500 nM.

Consider `C[C@H](N)C(=O)Nc1nc2ccc(C(=O)NC[C@](O)(c3cc4c(c(-c5ccc(F)cc5)n3)OC[C@]4(C)C(N)=O)C(F)(F)F)cc2s1` [Example 153], for which the results for the EC50 in assay [1] (setting [3]) and in assay [2] (setting [4]) were less than 200 nM and greater than 500 nM, respectively.

`C[C@@H](N)C(=O)Nc1nc2ccc(C(=O)NC[C@](O)(c3cc4c(c(-c5ccc(F)cc5)n3)OC[C@]4(C)C(N)=O)C(F)(F)F)cc2s1` [Example 154]: the EC50 in assay [1] (setting [3]) is less than 200 nM; in assay [2] (setting [4]), greater than 500 nM.

With `CC(C)[C@H](N)C(=O)Nc1nc2ccc(C(=O)NC[C@](O)(c3cc4c(c(-c5ccc(F)cc5)n3)OC[C@]4(C)C(N)=O)C(F)(F)F)cc2s1` [Example 155], the EC50 was less than 200 nM in assay [1] (setting [3]) and greater than 500 nM in assay [2] (setting [4]).

For the molecule `CC(C)[C@@H](N)C(=O)Nc1nc2ccc(C(=O)NC[C@](O)(c3cc4c(c(-c5ccc(F)cc5)n3)OC[C@]4(C)C(N)=O)C(F)(F)F)cc2s1` [Example 156], the EC50 is less than 200 nM in assay [1] (setting [3]) and greater than 500 nM in assay [2] (setting [4]).

Consider `C[C@@H](N)C(=O)Nc1nc2ccc(C(=O)NC[C@](O)(c3cc4c(c(-c5ccc(F)cc5)n3)OC[C@]4(C)C(N)=O)C(F)(F)F)cc2s1` [Example 158], for which the EC50 was less than 200 nM in assay [1] and greater than 500 nM in assay [2] (Method-A, MPV-GFP1 in Vero E6 cells, eGFP fluorescence after 5 days).
